In BindingDB's records for patent US12071425 (Genentech, 2024):

Target: T1, Serine/threonine-protein kinase/endoribonuclease IRE1 [D688N] (Homo sapiens, UniProt O75460, D688N)
T1 construct: gene ERN1
Experiment: IRE1α TR-FRET Competition Binding Assay
Protocol: To determine the affinity of compound binding to the kinase domain of IRE1 alpha, a Time Resolved Fluorescence Resonance Energy Transfer (TR-FRET) competition assay was used. A His-tagged IRE1 alpha kinase dead construct containing the kinase and RNase domains (KR, AA G547-L977, D688N) was expressed in Sf9 insect cells. The purified protein (final concentration 0.006 μM micromolar) was pre-incubated with anti-His Europium labeled antibody (Life Technologies PV5596, final concentration 0.002 μM micromolar) for one hour at 4° C. in 1X TR-FRET Assay Buffer (50 mM HEPES, pH 7.5.10 mM MgCl2, 0.083 mM Brij 35, 1 mM DTT, and 0.1% bovine gamma globulin) prior to addition to test compounds. A fluorescent labeled probe based on an ATP competitive inhibitor (Kinase Tracer 236, Life Technologies PV5592) is added to a final concentration of 0.1 μM (micromolar). Reactions were carried out for one hour at room temperature in a final volume of 20 μL (microliter) in 384 well white ProxiPlates (Perkin Elmer 6008289). Binding of the tracer to the IRE1 protein alpha was detected in an Envision instrument (PerkinElmer) equipped with a TRF laser option and a LANCE/Delfia Dual/Bias D400/D630 mirror (Ex 347 nm, 1st Em 665 nm, 2nd Em 615 nm).

T1 sequence (O75460 19-977 D688N limits assumed): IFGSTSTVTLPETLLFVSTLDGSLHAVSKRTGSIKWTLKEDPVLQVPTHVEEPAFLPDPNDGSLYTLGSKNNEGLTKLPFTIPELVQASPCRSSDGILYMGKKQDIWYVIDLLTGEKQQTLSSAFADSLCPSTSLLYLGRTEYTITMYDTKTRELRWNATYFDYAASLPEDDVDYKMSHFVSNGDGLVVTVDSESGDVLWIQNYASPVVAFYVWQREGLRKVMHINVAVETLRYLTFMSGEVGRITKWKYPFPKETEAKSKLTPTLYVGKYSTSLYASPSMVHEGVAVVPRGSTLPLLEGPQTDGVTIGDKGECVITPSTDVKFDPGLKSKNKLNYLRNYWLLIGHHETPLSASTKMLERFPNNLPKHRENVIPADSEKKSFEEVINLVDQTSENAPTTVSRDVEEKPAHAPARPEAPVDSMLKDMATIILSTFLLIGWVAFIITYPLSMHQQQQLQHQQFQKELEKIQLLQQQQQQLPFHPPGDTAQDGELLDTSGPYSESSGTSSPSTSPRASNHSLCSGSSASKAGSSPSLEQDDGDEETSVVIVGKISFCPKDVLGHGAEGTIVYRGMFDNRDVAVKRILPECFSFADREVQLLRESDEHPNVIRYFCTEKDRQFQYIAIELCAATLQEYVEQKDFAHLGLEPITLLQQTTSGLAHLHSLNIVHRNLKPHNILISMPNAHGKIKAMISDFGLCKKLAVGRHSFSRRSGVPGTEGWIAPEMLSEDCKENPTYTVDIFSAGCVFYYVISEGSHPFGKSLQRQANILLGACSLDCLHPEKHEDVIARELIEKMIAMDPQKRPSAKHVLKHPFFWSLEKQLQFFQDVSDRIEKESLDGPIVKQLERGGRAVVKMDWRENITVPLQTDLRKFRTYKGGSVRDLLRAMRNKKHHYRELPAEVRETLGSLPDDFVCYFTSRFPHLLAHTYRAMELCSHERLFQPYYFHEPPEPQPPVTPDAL

## O=S(=O)(Nc1ccc(Oc2ncccc2-c2ccnc(N[C@H]3CCCNC3)n2)c(F)c1F)c1ccccc1Cl [US12071425, Compound 227]
  IC50: 4.8 nM

## O=S(=O)(CC(F)(F)F)Nc1c(F)cc(Oc2ncccc2-c2ccnc(N[C@@H]3CNC[C@@H](F)C3)n2)c(F)c1F [US12071425, Compound 260]
  IC50: 2.6 nM

## CN(C)[C@H]1CC[C@H](Nc2nccc(-c3cccnc3Oc3cc(F)c(NS(=O)(=O)CCC(F)(F)F)c(F)c3F)n2)CC1 [US12071425, Compound 382]
  IC50: 2 nM
